Target: RAC-gamma serine/threonine-protein kinase (Homo sapiens, UniProt Q9Y243)
Assay: Inhibition of full-length recombinant human His-tagged AKT3 expressed in baculovirus expression system by Z'-LYTE assay

RAC-gamma serine/threonine-protein kinase, sequence (Q9Y243 whole entry): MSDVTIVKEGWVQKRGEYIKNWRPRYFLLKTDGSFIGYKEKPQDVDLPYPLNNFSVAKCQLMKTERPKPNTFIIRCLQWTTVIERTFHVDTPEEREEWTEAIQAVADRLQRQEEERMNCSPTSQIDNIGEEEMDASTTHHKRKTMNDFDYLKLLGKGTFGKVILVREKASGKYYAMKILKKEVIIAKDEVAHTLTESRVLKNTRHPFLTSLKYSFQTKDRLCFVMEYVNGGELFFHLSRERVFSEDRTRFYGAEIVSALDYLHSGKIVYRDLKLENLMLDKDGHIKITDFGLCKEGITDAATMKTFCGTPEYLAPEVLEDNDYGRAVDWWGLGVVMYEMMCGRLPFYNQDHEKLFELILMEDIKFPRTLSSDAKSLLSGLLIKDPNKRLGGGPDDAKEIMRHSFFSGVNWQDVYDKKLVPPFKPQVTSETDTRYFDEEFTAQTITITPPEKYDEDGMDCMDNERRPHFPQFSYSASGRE

| Compound | IC50 [nM] |
| --- | --- |
| Cn1cc(-c2cnc3c(-c4csc(C(=O)NCC(F)(F)F)c4)cnn3c2)cn1 | > 100000 |
| Cc1sc(C(=O)N[C@@H]2[C@H](N)CCCC2(F)F)cc1-c1cnn2cc(Cl)cnc12 | 2400 |
| O=C(NCC(F)(F)F)c1cc(-c2cnn3cc(-c4ccc(OCCN5CCCCC5)cc4)cnc23)cs1 | > 100000 |
| Cn1cc(-c2cnc3c(-c4csc(C(=O)N[C@@H]5CCCC[C@@H]5N)c4)cnn3c2)cn1 (racemic) | 330 |

Target: T1, Serine/threonine-protein kinase Nek2 (Homo sapiens, UniProt P51955)
T1 sequence (P51955 whole entry): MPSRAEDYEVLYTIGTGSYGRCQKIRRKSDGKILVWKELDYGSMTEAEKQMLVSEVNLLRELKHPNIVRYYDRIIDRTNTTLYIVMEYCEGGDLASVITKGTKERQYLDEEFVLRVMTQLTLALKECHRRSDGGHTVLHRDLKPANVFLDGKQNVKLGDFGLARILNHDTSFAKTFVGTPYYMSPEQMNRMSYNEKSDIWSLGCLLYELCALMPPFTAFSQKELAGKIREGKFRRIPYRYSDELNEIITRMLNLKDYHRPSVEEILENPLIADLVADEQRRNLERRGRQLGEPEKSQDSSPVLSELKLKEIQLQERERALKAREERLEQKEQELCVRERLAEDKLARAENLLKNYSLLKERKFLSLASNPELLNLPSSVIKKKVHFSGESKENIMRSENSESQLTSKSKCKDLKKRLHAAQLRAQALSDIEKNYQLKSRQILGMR
Assay: Inhibition of full-length recombinant human His-tagged NEK2 expressed in baculovirus expression system by Z'-LYTE assay

| Compound | IC50 [nM] |
| --- | --- |
| Cn1cc(-c2cnc3c(-c4csc(C(=O)NCC(F)(F)F)c4)cnn3c2)cn1 | > 100000 |
| Cc1sc(C(=O)N[C@@H]2[C@H](N)CCCC2(F)F)cc1-c1cnn2cc(Cl)cnc12 | 13000 |
| O=C(NCC(F)(F)F)c1cc(-c2cnn3cc(-c4ccc(OCCN5CCCCC5)cc4)cnc23)cs1 | 16000 |
| Cn1cc(-c2cnc3c(-c4csc(C(=O)N[C@@H]5CCCC[C@@H]5N)c4)cnn3c2)cn1 (racemic) | 950 |

Target: T2, Inhibitor of nuclear factor kappa-B kinase subunit beta (Homo sapiens, UniProt O14920)
T2 sequence (O14920 whole entry): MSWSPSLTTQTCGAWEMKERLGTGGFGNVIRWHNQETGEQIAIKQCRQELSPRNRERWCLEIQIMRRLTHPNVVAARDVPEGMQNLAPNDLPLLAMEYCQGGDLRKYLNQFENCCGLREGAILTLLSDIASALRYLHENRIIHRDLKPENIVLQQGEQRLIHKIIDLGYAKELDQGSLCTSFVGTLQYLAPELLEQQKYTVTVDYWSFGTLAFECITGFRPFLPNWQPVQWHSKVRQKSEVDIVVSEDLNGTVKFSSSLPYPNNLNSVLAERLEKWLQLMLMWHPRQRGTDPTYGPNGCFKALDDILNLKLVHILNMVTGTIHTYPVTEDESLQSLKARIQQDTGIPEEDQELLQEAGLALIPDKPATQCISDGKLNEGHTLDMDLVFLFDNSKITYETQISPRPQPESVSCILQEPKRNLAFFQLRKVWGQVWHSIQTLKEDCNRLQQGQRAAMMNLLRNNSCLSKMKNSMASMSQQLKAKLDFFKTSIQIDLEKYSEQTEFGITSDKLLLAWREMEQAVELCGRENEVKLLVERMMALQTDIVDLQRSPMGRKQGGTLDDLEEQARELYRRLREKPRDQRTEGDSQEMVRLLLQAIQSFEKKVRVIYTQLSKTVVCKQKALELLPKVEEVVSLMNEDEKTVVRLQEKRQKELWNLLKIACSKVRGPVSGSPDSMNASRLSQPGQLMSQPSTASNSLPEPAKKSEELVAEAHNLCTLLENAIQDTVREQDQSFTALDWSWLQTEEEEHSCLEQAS
Assay: Inhibition of full-length recombinant human GST-tagged IKK-beta expressed in baculovirus expression system by Z'-LYTE assay

| Compound | IC50 [nM] |
| --- | --- |
| Cn1cc(-c2cnc3c(-c4csc(C(=O)NCC(F)(F)F)c4)cnn3c2)cn1 | > 100000 |
| Cc1sc(C(=O)N[C@@H]2[C@H](N)CCCC2(F)F)cc1-c1cnn2cc(Cl)cnc12 | 31000 |
| O=C(NCC(F)(F)F)c1cc(-c2cnn3cc(-c4ccc(OCCN5CCCCC5)cc4)cnc23)cs1 | 55000 |
| Cn1cc(-c2cnc3c(-c4csc(C(=O)N[C@@H]5CCCC[C@@H]5N)c4)cnn3c2)cn1 (racemic) | > 10000 |

Target: PAS domain-containing serine/threonine-protein kinase (Homo sapiens, UniProt Q96RG2)
Assay: Inhibition of recombinant human GST-tagged PASK catalytic domain expressed in baculovirus expression system by Z'-LYTE assay

| Compound | IC50 [nM] |
| --- | --- |
| Cn1cc(-c2cnc3c(-c4csc(C(=O)NCC(F)(F)F)c4)cnn3c2)cn1 | > 100000 |
| Cc1sc(C(=O)N[C@@H]2[C@H](N)CCCC2(F)F)cc1-c1cnn2cc(Cl)cnc12 | 1400 |
| O=C(NCC(F)(F)F)c1cc(-c2cnn3cc(-c4ccc(OCCN5CCCCC5)cc4)cnc23)cs1 | 37000 |
| Cn1cc(-c2cnc3c(-c4csc(C(=O)N[C@@H]5CCCC[C@@H]5N)c4)cnn3c2)cn1 (racemic) | 1500 |

Tested on: not listed separately
Assay: Inhibition of full-length recombinant human GST and His-tagged AMPK alpha2/beta1/gamma1 expressed in baculovirus expression system by LanthaScreen assay

| Compound | IC50 [nM] |
| --- | --- |
| Cn1cc(-c2cnc3c(-c4csc(C(=O)NCC(F)(F)F)c4)cnn3c2)cn1 | 68 |
| Cc1sc(C(=O)N[C@@H]2[C@H](N)CCCC2(F)F)cc1-c1cnn2cc(Cl)cnc12 | 290 |
| O=C(NCC(F)(F)F)c1cc(-c2cnn3cc(-c4ccc(OCCN5CCCCC5)cc4)cnc23)cs1 | 25 |

Target: T3, Testis-specific serine/threonine-protein kinase 1 (Homo sapiens, UniProt Q9BXA7)
T3 sequence (Q9BXA7 whole entry): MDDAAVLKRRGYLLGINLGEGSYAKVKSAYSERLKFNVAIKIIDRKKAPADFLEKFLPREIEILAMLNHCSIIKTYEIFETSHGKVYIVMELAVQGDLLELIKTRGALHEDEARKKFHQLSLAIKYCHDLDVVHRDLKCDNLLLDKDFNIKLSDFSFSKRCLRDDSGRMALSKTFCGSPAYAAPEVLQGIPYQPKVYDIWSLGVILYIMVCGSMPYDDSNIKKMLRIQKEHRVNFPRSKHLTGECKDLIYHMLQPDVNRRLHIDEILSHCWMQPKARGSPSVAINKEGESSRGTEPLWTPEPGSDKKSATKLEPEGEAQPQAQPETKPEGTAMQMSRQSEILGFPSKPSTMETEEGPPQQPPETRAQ
Assay: Inhibition of full-length recombinant human His-tagged STK22D expressed in baculovirus expression system by Z'-LYTE assay

| Compound | IC50 [nM] |
| --- | --- |
| Cn1cc(-c2cnc3c(-c4csc(C(=O)NCC(F)(F)F)c4)cnn3c2)cn1 | 20 |
| Cc1sc(C(=O)N[C@@H]2[C@H](N)CCCC2(F)F)cc1-c1cnn2cc(Cl)cnc12 | < 10 |
| O=C(NCC(F)(F)F)c1cc(-c2cnn3cc(-c4ccc(OCCN5CCCCC5)cc4)cnc23)cs1 | < 10 |
| Cn1cc(-c2cnc3c(-c4csc(C(=O)N[C@@H]5CCCC[C@@H]5N)c4)cnn3c2)cn1 (racemic) | < 1 |

Target: T4, Protein kinase C zeta type (Homo sapiens, UniProt Q05513)
T4 sequence (Q05513 whole entry): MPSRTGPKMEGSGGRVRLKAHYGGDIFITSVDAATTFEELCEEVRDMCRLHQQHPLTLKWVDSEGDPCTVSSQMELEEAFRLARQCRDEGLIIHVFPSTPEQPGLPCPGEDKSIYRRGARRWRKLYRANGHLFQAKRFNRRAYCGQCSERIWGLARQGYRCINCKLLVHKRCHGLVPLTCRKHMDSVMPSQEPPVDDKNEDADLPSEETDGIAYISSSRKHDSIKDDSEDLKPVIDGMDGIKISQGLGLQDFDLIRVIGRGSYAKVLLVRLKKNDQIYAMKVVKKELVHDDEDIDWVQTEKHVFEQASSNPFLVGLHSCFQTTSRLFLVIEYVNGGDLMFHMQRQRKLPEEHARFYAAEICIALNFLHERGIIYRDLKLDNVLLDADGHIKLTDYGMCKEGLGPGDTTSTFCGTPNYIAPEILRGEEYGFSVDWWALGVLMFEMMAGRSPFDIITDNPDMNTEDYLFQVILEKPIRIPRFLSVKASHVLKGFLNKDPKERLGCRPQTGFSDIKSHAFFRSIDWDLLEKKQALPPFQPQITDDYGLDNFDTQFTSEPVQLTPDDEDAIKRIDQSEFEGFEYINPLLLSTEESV
Assay: Inhibition of full-length recombinant human PRKCZ expressed in baculovirus expression system by Z'-LYTE assay

| Compound | IC50 [nM] |
| --- | --- |
| Cn1cc(-c2cnc3c(-c4csc(C(=O)NCC(F)(F)F)c4)cnn3c2)cn1 | 1800 |
| Cc1sc(C(=O)N[C@@H]2[C@H](N)CCCC2(F)F)cc1-c1cnn2cc(Cl)cnc12 | 1100 |
| O=C(NCC(F)(F)F)c1cc(-c2cnn3cc(-c4ccc(OCCN5CCCCC5)cc4)cnc23)cs1 | 1900 |
| Cn1cc(-c2cnc3c(-c4csc(C(=O)N[C@@H]5CCCC[C@@H]5N)c4)cnn3c2)cn1 (racemic) | 40 |

Target: Vascular endothelial growth factor receptor 2 (Homo sapiens, UniProt P35968)
Sequence (P35968 whole entry): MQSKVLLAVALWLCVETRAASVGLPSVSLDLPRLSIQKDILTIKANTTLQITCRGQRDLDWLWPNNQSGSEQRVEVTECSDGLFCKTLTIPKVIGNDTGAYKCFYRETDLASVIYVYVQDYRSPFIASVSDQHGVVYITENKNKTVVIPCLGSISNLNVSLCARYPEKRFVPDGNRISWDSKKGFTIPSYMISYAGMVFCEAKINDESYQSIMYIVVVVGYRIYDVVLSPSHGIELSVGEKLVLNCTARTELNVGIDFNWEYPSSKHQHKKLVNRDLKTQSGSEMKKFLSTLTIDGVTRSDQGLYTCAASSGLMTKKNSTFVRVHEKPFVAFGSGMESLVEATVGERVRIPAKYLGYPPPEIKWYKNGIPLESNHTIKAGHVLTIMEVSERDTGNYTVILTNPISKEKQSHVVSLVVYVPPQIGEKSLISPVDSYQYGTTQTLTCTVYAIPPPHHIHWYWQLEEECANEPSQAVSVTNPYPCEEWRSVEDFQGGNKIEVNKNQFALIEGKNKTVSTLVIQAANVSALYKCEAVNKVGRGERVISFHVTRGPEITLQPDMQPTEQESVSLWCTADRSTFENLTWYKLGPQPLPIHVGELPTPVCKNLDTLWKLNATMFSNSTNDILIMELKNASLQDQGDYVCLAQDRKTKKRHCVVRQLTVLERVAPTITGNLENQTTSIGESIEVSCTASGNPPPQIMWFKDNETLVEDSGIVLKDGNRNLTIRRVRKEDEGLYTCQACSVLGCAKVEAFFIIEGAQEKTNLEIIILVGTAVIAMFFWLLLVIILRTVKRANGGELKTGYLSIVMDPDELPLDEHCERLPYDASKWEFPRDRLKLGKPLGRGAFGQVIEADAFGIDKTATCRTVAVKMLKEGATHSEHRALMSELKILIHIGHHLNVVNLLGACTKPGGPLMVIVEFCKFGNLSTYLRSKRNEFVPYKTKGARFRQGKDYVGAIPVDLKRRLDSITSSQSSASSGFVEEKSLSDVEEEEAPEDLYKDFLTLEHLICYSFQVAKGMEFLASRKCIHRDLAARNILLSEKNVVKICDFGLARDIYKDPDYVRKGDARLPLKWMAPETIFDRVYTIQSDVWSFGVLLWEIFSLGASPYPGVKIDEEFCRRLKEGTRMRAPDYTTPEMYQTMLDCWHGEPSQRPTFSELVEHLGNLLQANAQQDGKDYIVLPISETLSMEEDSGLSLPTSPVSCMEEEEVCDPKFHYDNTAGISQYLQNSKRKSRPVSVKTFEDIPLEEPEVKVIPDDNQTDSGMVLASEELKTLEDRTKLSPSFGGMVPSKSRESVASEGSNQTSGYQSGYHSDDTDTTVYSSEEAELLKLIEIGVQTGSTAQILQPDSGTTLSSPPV
Assay: Inhibition of recombinant human His-tagged cytoplasmic KDR expressed in baculovirus expression system by Z'-LYTE assay

| Compound | IC50 [nM] |
| --- | --- |
| Cn1cc(-c2cnc3c(-c4csc(C(=O)NCC(F)(F)F)c4)cnn3c2)cn1 | 15 |
| Cc1sc(C(=O)N[C@@H]2[C@H](N)CCCC2(F)F)cc1-c1cnn2cc(Cl)cnc12 | 11000 |
| O=C(NCC(F)(F)F)c1cc(-c2cnn3cc(-c4ccc(OCCN5CCCCC5)cc4)cnc23)cs1 | < 10 |
| Cn1cc(-c2cnc3c(-c4csc(C(=O)N[C@@H]5CCCC[C@@H]5N)c4)cnn3c2)cn1 (racemic) | 3.5 |

Target: Death-associated protein kinase 1 (Homo sapiens, UniProt P53355)
Sequence (P53355 whole entry, the tested form may be a part): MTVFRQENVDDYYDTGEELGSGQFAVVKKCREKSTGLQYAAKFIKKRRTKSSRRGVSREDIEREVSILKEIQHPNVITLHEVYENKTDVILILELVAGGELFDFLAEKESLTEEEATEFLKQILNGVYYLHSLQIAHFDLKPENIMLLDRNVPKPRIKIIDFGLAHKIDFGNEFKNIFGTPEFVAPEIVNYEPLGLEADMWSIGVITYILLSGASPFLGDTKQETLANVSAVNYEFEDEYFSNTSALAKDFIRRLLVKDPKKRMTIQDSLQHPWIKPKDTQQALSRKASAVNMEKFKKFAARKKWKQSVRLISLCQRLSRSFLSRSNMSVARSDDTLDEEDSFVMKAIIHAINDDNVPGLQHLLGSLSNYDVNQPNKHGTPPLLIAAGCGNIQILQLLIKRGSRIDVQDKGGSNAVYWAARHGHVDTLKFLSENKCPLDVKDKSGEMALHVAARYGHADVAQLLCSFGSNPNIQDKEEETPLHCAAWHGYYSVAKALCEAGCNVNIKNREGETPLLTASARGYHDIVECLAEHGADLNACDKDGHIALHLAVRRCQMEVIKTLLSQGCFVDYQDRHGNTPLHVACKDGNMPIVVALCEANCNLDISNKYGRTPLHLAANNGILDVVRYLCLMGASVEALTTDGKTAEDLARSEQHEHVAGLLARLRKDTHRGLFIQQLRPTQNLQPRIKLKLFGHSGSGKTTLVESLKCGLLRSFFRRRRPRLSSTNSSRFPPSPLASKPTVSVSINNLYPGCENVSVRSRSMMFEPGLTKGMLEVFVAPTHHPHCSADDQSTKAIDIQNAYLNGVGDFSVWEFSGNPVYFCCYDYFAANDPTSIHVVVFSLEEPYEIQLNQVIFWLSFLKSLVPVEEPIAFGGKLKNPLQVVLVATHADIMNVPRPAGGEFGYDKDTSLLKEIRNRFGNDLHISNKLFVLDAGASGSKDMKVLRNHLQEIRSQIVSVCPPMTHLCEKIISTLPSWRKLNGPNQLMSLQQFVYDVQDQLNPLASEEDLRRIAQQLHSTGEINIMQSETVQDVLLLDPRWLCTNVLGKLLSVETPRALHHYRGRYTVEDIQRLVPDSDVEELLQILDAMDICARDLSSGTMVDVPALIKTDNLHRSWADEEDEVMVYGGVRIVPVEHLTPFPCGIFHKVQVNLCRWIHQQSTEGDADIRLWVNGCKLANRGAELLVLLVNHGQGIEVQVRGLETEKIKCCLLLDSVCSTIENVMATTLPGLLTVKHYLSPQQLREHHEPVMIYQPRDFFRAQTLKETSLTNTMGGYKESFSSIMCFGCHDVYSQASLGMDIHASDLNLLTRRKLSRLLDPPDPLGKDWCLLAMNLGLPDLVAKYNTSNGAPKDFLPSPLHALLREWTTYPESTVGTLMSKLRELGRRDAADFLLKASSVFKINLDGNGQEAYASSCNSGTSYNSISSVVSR
Assay: Inhibition of recombinant human GST-tagged DAPK1 catalytic domain expressed in baculovirus expression system by Adapta assay

| Compound | IC50 [nM] |
| --- | --- |
| Cn1cc(-c2cnc3c(-c4csc(C(=O)NCC(F)(F)F)c4)cnn3c2)cn1 | < 10 |
| Cc1sc(C(=O)N[C@@H]2[C@H](N)CCCC2(F)F)cc1-c1cnn2cc(Cl)cnc12 | 26 |
| O=C(NCC(F)(F)F)c1cc(-c2cnn3cc(-c4ccc(OCCN5CCCCC5)cc4)cnc23)cs1 | < 10 |
| Cn1cc(-c2cnc3c(-c4csc(C(=O)N[C@@H]5CCCC[C@@H]5N)c4)cnn3c2)cn1 (racemic) | 1.9 |

Target: MAP/microtubule affinity-regulating kinase 3 (Homo sapiens, UniProt P27448)
Sequence (P27448 whole entry): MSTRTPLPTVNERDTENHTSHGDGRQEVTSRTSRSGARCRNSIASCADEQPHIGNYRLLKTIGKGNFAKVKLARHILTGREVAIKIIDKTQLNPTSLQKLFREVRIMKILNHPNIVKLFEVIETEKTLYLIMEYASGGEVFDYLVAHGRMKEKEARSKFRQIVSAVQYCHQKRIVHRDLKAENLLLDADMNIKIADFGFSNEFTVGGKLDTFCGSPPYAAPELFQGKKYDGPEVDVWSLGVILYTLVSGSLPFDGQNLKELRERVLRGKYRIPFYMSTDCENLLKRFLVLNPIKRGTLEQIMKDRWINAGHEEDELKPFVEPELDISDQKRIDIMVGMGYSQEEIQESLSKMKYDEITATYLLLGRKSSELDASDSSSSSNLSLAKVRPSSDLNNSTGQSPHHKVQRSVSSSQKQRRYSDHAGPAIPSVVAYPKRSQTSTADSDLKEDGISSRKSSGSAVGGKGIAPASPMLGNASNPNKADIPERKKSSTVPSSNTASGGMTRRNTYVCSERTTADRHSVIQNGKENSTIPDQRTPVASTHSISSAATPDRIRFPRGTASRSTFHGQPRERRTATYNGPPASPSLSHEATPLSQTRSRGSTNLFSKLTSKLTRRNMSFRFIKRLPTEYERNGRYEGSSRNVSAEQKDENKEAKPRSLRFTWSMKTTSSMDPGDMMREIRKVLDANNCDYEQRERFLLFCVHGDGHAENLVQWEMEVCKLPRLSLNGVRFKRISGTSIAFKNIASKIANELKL
Assay: Inhibition of full-length recombinant human GST-tagged MARK3 expressed in baculovirus expression system using biotinylated-Cdc25C peptide substrate measured after 2 hrs by HTRF assay

| Compound | IC50 [nM] |
| --- | --- |
| Cn1cc(-c2cnc3c(-c4csc(C(=O)NCC(F)(F)F)c4)cnn3c2)cn1 | 6 |
| Cc1sc(C(=O)N[C@@H]2[C@H](N)CCCC2(F)F)cc1-c1cnn2cc(Cl)cnc12 | 5 |
| O=C(NCC(F)(F)F)c1cc(-c2cnn3cc(-c4ccc(OCCN5CCCCC5)cc4)cnc23)cs1 | 1 |
| Cn1cc(-c2cnc3c(-c4csc(C(=O)N[C@@H]5CCCC[C@@H]5N)c4)cnn3c2)cn1 (racemic) | ≤ 0.5 |

Target: MAP kinase-activated protein kinase 2 (Homo sapiens, UniProt P49137)
Sequence (P49137 whole entry): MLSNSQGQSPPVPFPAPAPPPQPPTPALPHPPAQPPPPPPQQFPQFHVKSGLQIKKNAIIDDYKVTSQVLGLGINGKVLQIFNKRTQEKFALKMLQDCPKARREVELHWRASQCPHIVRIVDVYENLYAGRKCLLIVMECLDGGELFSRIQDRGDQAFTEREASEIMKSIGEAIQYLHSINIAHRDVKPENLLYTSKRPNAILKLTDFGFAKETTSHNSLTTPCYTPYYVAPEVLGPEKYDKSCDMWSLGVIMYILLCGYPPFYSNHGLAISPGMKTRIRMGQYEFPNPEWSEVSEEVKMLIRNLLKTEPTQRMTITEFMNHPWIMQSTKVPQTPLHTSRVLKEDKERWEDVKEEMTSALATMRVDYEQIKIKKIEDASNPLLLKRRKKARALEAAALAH
Assay: Inhibition of full-length recombinant human His-tagged MAPKAPK2 expressed in Escherichia coli by Z'-LYTE assay

| Compound | IC50 [nM] |
| --- | --- |
| Cn1cc(-c2cnc3c(-c4csc(C(=O)NCC(F)(F)F)c4)cnn3c2)cn1 | > 100000 |
| Cc1sc(C(=O)N[C@@H]2[C@H](N)CCCC2(F)F)cc1-c1cnn2cc(Cl)cnc12 | 7800 |
| O=C(NCC(F)(F)F)c1cc(-c2cnn3cc(-c4ccc(OCCN5CCCCC5)cc4)cnc23)cs1 | 55000 |
| Cn1cc(-c2cnc3c(-c4csc(C(=O)N[C@@H]5CCCC[C@@H]5N)c4)cnn3c2)cn1 (racemic) | 390 |

— ChEMBL document CHEMBL4477252, “Optimization of microtubule affinity regulating kinase (MARK) inhibitors with improved physical properties” (Bioorg Med Chem Lett, 2016)
